Reference: patent US20240101576A1, “HETEROCYCLIC INHIBITORS OF EGFR AND/OR HER2, FOR USE IN THE TREATMENT OF CANCER” (Scorpion Therapeutics, Inc., priority 2020, published 2024)

Assays:
Format in all cases: cell-based
[1] = target: T1, EGFR exon 20 NPG Ins D770_N771 (Ba/F3 cells) (Homo sapiens, UniProt P00533, INS770NPG); experiment: Inhibitor activity on EGFR-dependent cell growth (CellTiter-Glo, 72 h), Ba/F3 EGFR exon 20 NPG Ins; settings: read-out: BaF3 NPG IC50
T1 construct: expressed in transfected cells; host or cells: Ba/F3 (murine pro-B cells), retroviral transduction, puromycin selection, IL3-independent pool
Summary of the method: (§1)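 IC50s derive from a sigmoidal dose–response fit of CellTiter-Glo signal. The signal was normalised between […]-treated cells and cell-free medium. Ba/F3 mutant-EGFR cells, seeded at 400–800/well depending on the line, had 72 h of exposure to a 10-point, 3-fold compound series.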

EGFR WT (Ba/F3 cells) = target: T2, EGFR WT (Ba/F3 cells) (Homo sapiens, UniProt P00533); experiment: Inhibitor activity on EGFR-dependent cell growth (CellTiter-Glo, 72 h), Ba/F3 EGFR WT; settings: read-out: BaF3 WT IC50
T2 construct: expressed in transfected cells; host or cells: Ba/F3 (murine pro-B cells), retroviral transduction, puromycin selection, maintained with EGF
Summary of the method: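 This growth assay used Ba/F3 cells that depend on wild-type EGFR and are kept in EGF without IL3. Compounds were made up as 10 mM DMSO stocks and diluted 3-fold over 10 points. 120 nL went onto 600 cells/well. After 72 hours, 40 μL CellTiter-Glo was added and luminescence read on EnVision after 30 min.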

[2] = target: T3, EGFR exon 20 ASV Ins V769_D770 (Ba/F3 cells) (Homo sapiens, UniProt P00533, INS769ASV); experiment: Inhibitor activity on EGFR-dependent cell growth (CellTiter-Glo, 72 h), Ba/F3 EGFR exon 20 ASV Ins; settings: read-out: BaF3 ASV IC50
T3 construct: expressed in transfected cells; host or cells: Ba/F3 (murine pro-B cells), retroviral transduction, puromycin selection, IL3-independent pool
Summary of the method: as §1

EGFR (CUTO14 cells) = EGFR (CUTO14 cells) (Homo sapiens, UniProt P00533); experiment: Inhibitor activity on EGFR phosphorylation (pEGFR AlphaLISA, 2 h), CUTO14 cells
Source text: Example B. Inhibitor Activity on EGFR phosphorylation (pEGFR)
EGFR mutant Ba/F3 cells were generated by transduction with retrovirus containing vectors expressing EGFR L858R, EGFR exon 19del, EGFR L858R/C797S, EGFR exon 20 NPG Ins D770_N771, EGFR exon 20 ASV Ins V769_D770, or EGFR exon 20 SVD Ins D770_N771 genes along with a puromycin selection marker. Transduced cells are selected with puromycin for 7 days and are then be transferred into culture media without Interleukin 3 (IL3). Surviving cells are confirmed to express EGFR by Western blot and maintained as a pool. CUTO14 cells were obtained from Dr. Robert C. Doebele at the University of Colorado. The IC50 date are included in Table 6 and Table 7.
(§2) 1.1 Cells are harvested from flask into cell culture medium and the cell number counted.
1.2 Cells are diluted with culture medium to the desired density and 40 μL of cell suspension is added into each well of 384-well cell culture plate and the seeding density is 50K cells/well (Ba/F3) or 12.5K cells/well (CUTO14).
(§3) 2 Compound Preparation and Treatment
(§4) 2.1 Test compounds are dissolved to 10 mM in a DMSO stock solution. 45 μL of stock solution is transferred to a 384 polypropylene plate (pp-plate). Perform 3-fold, 10-point dilution via transferring 15 μL compound into 30 μL DMSO using a TECAN (EVO200) liquid handler.
(§5) 2.2 Spin plates at room temperature at 1,000 RPM for 1 minute.
2.3 Transfer 5 nL of diluted compound from compound source plate into the cell plate.
2.4 After compound treatment for 2 hours, perform pEGFR detection by AlphaLISA for compound treatment plates as described in “Detection” section.
3 Detection by pEGFR AlphaLISA (Perkin-Elmer)
3.1 Plates are removed from incubators and equilibrated at room temperature for 10 minutes, and media was removed
3.2 10 μL of lysis buffer is added and plates shaken at 600 rpm for 1 hr.
3.3 Prepare acceptor mix just before use and dispense 5 μL of acceptor mix to all the wells. Shake 350 rpm for Ihr in the dark
3.4 Prepare donor mix under low light conditions prior to use. Dispense 5 μL of donor mix to all the wells. Mix well on the shaker, seal and wrap in aluminum foil and incubate 1.5 hrs at room temperature in the dark
3.5 Transfer 18.5 μL mixture to OptiPlate 384, and read using an Envision. The IC50 date were included in Table 6 and Table 7.

[3] = target: T4, EGFR exon 20 SVD Ins D770_N771 (Ba/F3 cells) (Homo sapiens, UniProt P00533, INS770SVD); experiment: Inhibitor activity on EGFR-dependent cell growth (CellTiter-Glo, 72 h), Ba/F3 EGFR exon 20 SVD Ins; settings: read-out: BaF3 SVD IC50
T4 construct: expressed in transfected cells; host or cells: Ba/F3 (murine pro-B cells), retroviral transduction, puromycin selection, IL3-independent pool
Summary of the method: as §1

[4] = target: T5, EGFR exon 20 FQEA Ins A763_V764 (Ba/F3 cells) (Homo sapiens, UniProt P00533, INS763FQEA); experiment: Inhibitor activity on EGFR-dependent cell growth (CellTiter-Glo, 72 h), Ba/F3 EGFR exon 20 FQEA Ins; settings: read-out: BaF3 FQEA IC50
T5 construct: expressed in transfected cells; host or cells: Ba/F3 (murine pro-B cells), retroviral transduction, puromycin selection, IL3-independent pool
Summary of the method: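 Compounds, serially diluted 3-fold over 10 points in DMSO and added at 120 nL per well, act on Ba/F3 EGFR-mutant cells for 72 h. Seeding is 800 (exon 19del, FQEA), 600 (L858R/C797S) or 400 (L858R) cells/well. CTG luminescence is fitted with a four-parameter logistic curve to give IC50.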

[5] = target: T1, EGFR exon 20 NPG Ins D770_N771 (Ba/F3 cells); experiment: Inhibitor activity on EGFR phosphorylation (pEGFR AlphaLISA, 2 h), Ba/F3 EGFR exon 20 NPG Ins
Summary of the method: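 After a 2-hour exposure to compound (3-fold, 10-point series from 10 mM DMSO stock), cell lysates were assayed for pEGFR by AlphaLISA. Cells were retrovirally engineered, IL3-independent Ba/F3 lines expressing each EGFR mutant at 50K/well, or CUTO14 cells at 12.5K/well, giving IC50 values.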

[6] = target: EGFR exon 19del (Ba/F3 cells) (Homo sapiens, UniProt P00533); experiment: Inhibitor activity on EGFR-dependent cell growth (CellTiter-Glo, 72 h), Ba/F3 EGFR exon 19del; settings: Ba/F3 EGFR exon 19del cell growth, read-out: BaF3 Del19 IC50
Source text: (§6) Example A. Inhibitor Activity on EGFR-Dependent Cell Growth
(§7) Cell lines are generated by transducing Ba/F3 cells with retroviruses containing vectors with EGFR WT, EGFR L858R, EGFR exon 19del, EGFR L858R/C797S, EGFR exon 20 NPG Ins D770_N771, EGFR exon 20 ASV Ins V769_D770, EGFR exon 20 SVD Ins D770_N771, or EGFR exon 20 FQEA Ins A763_V764 genes and a puromycin selection marker. Transduced cells are selected with puromycin for 7 days and are then be transferred into culture media without Interleukin 3 (IL3). EGFR WT cells are maintained with supplemental EGF. Surviving cells are confirmed to express EGFR by Western blot and maintained as a pool. The IC50 date were included in Table 6 and Table 7.
as §2
(§8) 1.2 Cells are diluted with culture medium to the desired density and 40 μL of cell suspension is added into each well of 384-well cell culture plate and the seeding density is 800 (FQEA, exon 19del), 600 (WT, NPG, L858R/C797S), or 400 (ASV, SVD, L858R) cells/well.
as §3, §4, §5
(§9) 2.3 Transfer 120 nL of diluted compound from compound source plate into the cell plate.
(§10) 2.4 After compound treatment for 72 hours, perform CTG detection for compound treatment plates as described in “Detection” section.
(§11) 3.1 Plates are removed from incubators and equilibrated at room temperature for 15 minutes.
(§12) 3.2 Thaw the CellTiter Glo reagents and allow to equilibrate to room temperature before the experiment.
(§13) 3.3 Add 40 μL of CellTiter-Glo reagent into each well (at 1:1 to culture medium). Then place the plates at room temperature for 30 min followed by reading on EnVision.
(§14) 4.1 Inhibition activity is calculated following the formula below:
(§15) % Inhibition=100×(LumHC−LumSample)/(LumHC−LumLC) • where HC is obtained from cells treated with 0.1% DMSO only; and LC is obtained from culture medium only.
(§16) 4.2 2. Calculate the IC50 by fitting the Curve using Xlfit (v5.3.1.3), equation 201.
(§17) Y=Bottom+(Top−Bottom)/(1+10^((Log IC50−X)*HillSlope))

EGFR L858R (Ba/F3 cells) = target: T6, EGFR L858R (Ba/F3 cells) (Homo sapiens, UniProt P00533, L858R); experiment: Inhibitor activity on EGFR-dependent cell growth (CellTiter-Glo, 72 h), Ba/F3 EGFR L858R; settings: read-out: BaF3 L858R IC50
T6 construct: expressed in transfected cells; host or cells: Ba/F3 (murine pro-B cells), retroviral transduction, puromycin selection, IL3-independent pool
Source text: as §6, §7, §2, §8, §3, §4, §5, §9, §10, §11, §12, §13, §14, §15, §16, §17

T3 sequence (P00533 with tags, fused parts or gaps INS769ASV): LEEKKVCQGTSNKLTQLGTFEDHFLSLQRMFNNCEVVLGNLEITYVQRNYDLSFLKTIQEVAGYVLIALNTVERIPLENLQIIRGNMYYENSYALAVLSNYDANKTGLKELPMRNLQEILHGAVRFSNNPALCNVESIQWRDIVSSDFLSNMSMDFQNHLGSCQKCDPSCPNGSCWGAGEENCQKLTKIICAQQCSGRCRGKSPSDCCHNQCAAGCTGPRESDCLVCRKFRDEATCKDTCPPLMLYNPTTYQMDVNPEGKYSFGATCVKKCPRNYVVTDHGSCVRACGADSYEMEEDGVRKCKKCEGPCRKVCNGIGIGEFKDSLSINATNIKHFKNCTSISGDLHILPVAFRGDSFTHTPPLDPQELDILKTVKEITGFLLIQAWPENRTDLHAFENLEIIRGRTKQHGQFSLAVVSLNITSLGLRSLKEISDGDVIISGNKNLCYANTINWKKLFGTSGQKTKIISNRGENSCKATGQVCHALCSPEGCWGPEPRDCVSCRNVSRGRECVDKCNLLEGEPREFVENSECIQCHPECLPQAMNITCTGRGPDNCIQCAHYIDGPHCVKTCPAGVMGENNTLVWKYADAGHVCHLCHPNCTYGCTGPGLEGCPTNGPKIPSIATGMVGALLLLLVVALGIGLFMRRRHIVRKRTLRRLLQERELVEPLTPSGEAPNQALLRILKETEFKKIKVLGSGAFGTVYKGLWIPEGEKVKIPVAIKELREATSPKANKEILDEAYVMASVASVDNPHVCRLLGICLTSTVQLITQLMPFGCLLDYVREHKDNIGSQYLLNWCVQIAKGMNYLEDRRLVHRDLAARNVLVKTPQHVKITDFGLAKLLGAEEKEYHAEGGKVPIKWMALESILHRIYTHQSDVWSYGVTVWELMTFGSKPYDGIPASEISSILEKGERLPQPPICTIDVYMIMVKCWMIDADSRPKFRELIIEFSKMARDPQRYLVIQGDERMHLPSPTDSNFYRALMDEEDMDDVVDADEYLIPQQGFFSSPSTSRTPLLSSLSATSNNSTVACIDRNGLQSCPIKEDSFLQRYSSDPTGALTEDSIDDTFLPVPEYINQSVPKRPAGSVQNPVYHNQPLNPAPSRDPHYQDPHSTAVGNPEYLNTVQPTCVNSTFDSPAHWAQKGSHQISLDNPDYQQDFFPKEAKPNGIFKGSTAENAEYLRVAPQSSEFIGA
EGFR (CUTO14 cells), sequence (P00533 with tags, fused parts or gaps DUP767-769): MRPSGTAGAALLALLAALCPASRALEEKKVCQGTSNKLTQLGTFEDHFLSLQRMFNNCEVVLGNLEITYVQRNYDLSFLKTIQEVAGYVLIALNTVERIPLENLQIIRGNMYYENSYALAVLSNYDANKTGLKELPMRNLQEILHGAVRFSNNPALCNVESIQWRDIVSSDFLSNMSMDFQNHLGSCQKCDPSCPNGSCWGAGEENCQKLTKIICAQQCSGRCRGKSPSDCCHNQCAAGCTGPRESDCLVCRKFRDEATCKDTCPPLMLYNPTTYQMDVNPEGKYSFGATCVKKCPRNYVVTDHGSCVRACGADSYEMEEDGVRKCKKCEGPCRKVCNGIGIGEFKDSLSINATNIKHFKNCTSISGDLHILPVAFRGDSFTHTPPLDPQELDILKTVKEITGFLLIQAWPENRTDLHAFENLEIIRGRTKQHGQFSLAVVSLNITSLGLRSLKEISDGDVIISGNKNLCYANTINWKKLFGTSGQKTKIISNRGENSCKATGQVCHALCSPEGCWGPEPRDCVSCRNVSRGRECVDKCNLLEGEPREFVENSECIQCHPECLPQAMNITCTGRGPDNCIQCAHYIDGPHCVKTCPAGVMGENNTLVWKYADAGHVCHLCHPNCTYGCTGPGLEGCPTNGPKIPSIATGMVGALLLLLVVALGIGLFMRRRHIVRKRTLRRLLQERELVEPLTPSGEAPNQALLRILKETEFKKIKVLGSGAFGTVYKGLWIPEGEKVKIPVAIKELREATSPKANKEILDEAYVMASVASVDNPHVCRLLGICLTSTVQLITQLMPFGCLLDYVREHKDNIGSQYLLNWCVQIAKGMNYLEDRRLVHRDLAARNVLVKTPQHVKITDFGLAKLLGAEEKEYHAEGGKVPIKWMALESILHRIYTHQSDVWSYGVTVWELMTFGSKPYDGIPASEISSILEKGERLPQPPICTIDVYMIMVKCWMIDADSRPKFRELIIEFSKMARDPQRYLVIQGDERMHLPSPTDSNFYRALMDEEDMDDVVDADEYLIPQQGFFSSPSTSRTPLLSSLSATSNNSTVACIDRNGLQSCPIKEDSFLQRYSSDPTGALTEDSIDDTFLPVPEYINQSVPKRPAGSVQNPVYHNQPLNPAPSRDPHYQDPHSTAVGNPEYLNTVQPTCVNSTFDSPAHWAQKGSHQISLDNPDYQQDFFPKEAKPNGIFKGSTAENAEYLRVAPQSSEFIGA
T2 sequence (P00533 25-1210): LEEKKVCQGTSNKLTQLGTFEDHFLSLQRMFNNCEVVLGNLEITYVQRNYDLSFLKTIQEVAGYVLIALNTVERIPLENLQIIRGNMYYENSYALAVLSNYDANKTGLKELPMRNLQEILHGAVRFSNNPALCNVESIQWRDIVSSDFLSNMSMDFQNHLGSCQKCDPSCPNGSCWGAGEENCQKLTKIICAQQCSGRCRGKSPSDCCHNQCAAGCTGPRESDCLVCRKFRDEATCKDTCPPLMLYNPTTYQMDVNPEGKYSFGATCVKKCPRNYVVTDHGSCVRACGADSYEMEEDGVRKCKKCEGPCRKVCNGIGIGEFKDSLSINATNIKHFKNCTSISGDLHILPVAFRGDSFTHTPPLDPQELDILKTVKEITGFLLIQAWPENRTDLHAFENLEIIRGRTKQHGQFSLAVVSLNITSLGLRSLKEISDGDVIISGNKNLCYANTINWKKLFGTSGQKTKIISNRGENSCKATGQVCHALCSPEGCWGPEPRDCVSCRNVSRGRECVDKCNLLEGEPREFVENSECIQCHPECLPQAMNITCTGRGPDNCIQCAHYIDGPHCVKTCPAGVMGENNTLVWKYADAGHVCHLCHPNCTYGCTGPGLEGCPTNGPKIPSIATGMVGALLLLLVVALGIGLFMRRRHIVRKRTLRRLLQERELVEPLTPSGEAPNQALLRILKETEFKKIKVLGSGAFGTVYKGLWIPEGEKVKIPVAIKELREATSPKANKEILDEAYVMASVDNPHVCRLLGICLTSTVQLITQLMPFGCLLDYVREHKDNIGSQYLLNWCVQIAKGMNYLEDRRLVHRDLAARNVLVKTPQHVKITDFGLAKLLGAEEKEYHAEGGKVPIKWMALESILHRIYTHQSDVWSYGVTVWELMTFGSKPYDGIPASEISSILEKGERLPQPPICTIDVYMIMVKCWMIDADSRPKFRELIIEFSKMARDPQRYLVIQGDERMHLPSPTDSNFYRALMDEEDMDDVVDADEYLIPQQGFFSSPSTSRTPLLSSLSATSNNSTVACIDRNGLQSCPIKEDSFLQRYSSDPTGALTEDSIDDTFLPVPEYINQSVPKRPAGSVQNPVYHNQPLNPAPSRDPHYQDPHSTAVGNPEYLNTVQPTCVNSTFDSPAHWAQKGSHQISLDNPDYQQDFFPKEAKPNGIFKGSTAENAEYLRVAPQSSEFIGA
T4 sequence (P00533 with tags, fused parts or gaps INS770SVD): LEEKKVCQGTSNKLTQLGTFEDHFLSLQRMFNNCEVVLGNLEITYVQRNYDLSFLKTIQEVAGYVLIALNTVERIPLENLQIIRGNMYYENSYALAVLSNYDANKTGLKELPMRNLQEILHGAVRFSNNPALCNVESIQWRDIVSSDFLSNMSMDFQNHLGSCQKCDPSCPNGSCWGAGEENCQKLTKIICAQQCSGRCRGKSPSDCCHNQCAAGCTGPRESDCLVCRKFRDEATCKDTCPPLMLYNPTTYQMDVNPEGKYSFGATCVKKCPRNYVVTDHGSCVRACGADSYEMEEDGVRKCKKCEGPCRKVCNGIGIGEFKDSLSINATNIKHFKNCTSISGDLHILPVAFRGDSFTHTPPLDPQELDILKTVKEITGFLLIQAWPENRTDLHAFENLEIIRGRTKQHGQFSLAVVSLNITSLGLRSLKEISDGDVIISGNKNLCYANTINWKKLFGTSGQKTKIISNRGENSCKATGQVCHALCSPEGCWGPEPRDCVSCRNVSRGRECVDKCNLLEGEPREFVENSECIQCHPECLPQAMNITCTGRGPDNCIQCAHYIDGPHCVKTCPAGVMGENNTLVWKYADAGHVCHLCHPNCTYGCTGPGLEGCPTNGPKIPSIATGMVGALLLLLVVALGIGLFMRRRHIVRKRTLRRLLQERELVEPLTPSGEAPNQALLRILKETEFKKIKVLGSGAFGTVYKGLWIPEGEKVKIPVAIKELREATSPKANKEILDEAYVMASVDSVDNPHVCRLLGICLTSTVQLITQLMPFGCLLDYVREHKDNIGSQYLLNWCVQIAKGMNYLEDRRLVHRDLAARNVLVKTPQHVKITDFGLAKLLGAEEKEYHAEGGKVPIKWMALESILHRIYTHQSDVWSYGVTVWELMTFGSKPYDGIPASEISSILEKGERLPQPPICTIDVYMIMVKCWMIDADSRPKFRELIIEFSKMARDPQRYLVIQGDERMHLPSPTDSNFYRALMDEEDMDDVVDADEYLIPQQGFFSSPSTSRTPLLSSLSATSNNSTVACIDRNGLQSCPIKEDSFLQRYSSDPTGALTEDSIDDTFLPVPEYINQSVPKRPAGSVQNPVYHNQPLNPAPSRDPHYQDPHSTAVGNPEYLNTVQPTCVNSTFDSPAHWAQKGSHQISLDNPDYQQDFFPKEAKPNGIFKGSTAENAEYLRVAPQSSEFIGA

Row | IC50 [1] [nM] | IC50 (EGFR WT (Ba/F3 cells)) [nM] | IC50 [2] [nM] | IC50 (EGFR (CUTO14 cells)) [nM] | IC50 [3] [nM] | IC50 [4] [nM] | IC50 [5] [nM] | IC50 [6] [nM] | IC50 (EGFR L858R (Ba/F3 cells)) [nM] | SMILES
1 | 100 to 1000 | > 1000 | 100 to 1000 | 100 to 1000 | 100 to 1000 |  |  |  |  | COc1c(F)cccc1Nc1c(-c2ccnc(C)n2)[nH]c2c1C(=O)NCC21CCN(C(=O)/C=C/CN(C)C)CC1 [compound 649]
2 | < 100 | 100 to 1000 | < 100 |  | < 100 | 100 to 1000 | < 100 | < 100 | < 100 | COc1c(F)cccc1Nc1c(-c2ccncc2F)[nH]c2c1C(=O)NC[C@H]2C[C@@H]1CCO1 [Compound 422a, (7R)-3-[(3-fluoro-2-methoxyphenyl)amino]-2-(3-fluoropyridin-4-yl)-7-[(2R)-oxetan-2-ylmethyl]-1H,5H,6H,7H-pyrrolo[3,2-c]pyridin-4-one]
3 | < 100 | < 100 | < 100 |  | < 100 | < 100 |  | < 100 | < 100 | CCO[C@@H](C)c1ccc2nccc(-c3[nH]c4c(c3Nc3cccc(Cl)c3OC)C(=O)NCC4)c2n1 [compound 754, 3-[(3-chloro-2-methoxyphenyl)amino]-2-[6-[(1S)-1-ethoxyethyl]-1,5-naphthyridin-4-yl]-1H,5H,6H,7H-pyrrolo[3,2-c]pyridin-4-one; trifluoroacetic acid]
4 | < 100 | 100 to 1000 | < 100 | < 100 | < 100 |  |  |  |  | COc1c(Cl)cccc1Nc1c(-c2ccncc2F)[nH]c2c1C(=O)NCC2C[C@@H]1CO[C@@H](CN(C)C)CO1 (single isomer, unassigned) [Compound 562, (7R*)-3-[(3-chloro-2-methoxyphenyl)amino]-7-{[(2R,5S)-5-[(dimethylamino)methyl]-1,4-dioxan-2-yl]methyl}-2-(3-fluoropyridin-4-yl)-1H,5H,6H,7H-pyrrolo[3,2-c]pyridin-4-one]
5 | < 100 | > 1000 |  | < 100 |  |  |  |  |  | COc1c(Cl)cccc1Nc1c(-c2ccnc(C)n2)[nH]c2c1C(=O)NC[C@@H]2C[C@@H]1COCCO1 [Compound 552, (7S)-3-[(3-chloro-2-methoxyphenyl)amino]-7-[(2R)-1,4-dioxan-2-ylmethyl]-2-(2-methylpyrimidin-4-yl)-1H,5H,6H,7H-pyrrolo[3,2-c]pyridin-4-one]
